The structures appear in SMILES notation.

Experiment [1] concerns full-thickness skin wounds. The experiment can be described thus: Scar index analysis (H&E histology) in mouse excisional wound model. In kind it is in vivo, Mice. To be noted: for scar index: topical, 5 daily treatments, harvest after 14 days. As to the method: The mouse model used here can be considered one of the simplest and standard murine models for investigating scar formation and wound healing.
Mice were weighed and then anaesthetized with 5% isoflurane in air for induction and then administered 2.5-3% of isoflurane in air for the remainder of the procedure. The animals were administered Tramal (Tramadol) intraperitoneally for analgesia at a 0.1 mg/kg dose. Before surgery the back of the mice was shaved and disinfected with isobetadine soap, rinsed with water and then swabbed with iodium alcohol.
Four full-thickness skin wounds were performed by cutting the folded skin on the back of the mice with a 7.5 mm x 3 mm elliptical biopsy punch (Elliptical Excisional Instrument, Acuderm Inc.). The skin on the back was raised and folded at the level of the vertebral column by using the thumb and the index finger. The folded skin was then placed on a wood tongue depressor with the animal laying on one side and two wounds were performed through the folded skin by using an elliptical biopsy punch (Elliptical Excisional Instrument, Acuderm Inc.), resulting in four wounds on the back skin: two on the right of the vertebral column and two on the left (Figure 1). The epidermis, the dermis and the fat tissue in the wound was carefully removed without touching other tissues. The wounds were then immediately treated with topical application of Composition 1 (Tv - vehicle), Composition 2 (T1 - 1 µM Lipoxin A4), or Composition 3 (T2 - 100 µM Lipoxin A4). The position of the wounds that were treated with active agent (T1 or T2) or treated with vehicle (Tv) was randomised. The wound site was then covered with OP-Film (Somed International, the Netherlands). The borders were then fixed with cyanoacrylate glue (Loctite).
The mice were allowed to recover from the surgical preparation in a clean cage with fresh bedding and under a heating lamp. To avoid possible contamination the mice were placed in individual cages containing a cellulose bed that was changed every 24 hours. Single caging avoids other mice from detaching the adhesive patches.
The treatment was repeated at the day 1, 2, 3 and 4 post-surgery for a total of 5 treatments in the first 5 days of healing. At each time point the mice were briefly anaesthetized with isoflurane and a new dose of ointment was injected through the film onto the wound, after which the animal was left to recover. At day 5 all films were removed.
After 14 days the mice were sacrificed under isoflurane anaesthesia by cervical dislocation to harvest the regenerated tissue. Skin samples were taken. The back of the mouse was carefully shaved paying careful attention to not touch the wound area. […]
The extent of scarring was measured in accordance with the procedure set out by Khorasani et al. (2011). […]

Experiment [2] has as its system full-thickness skin wounds. As to the kind of experiment: Collagen content and organisation (picrosirius red, bright-field and polarised light image analysis) in mouse excisional wound model. In kind it is in vivo, Mice. The following applies: wounds treated versus vehicle; Fig. 5. As to the method:
Four full-thickness skin wounds were performed by cutting the folded skin on the back of the mice with a 7.5 mm x 3 mm elliptical biopsy punch (Elliptical Excisional Instrument, Acuderm Inc.). The skin on the back was raised and folded at the level of the vertebral column by using the thumb and the index finger. The folded skin was then placed on a wood tongue depressor with the animal laying on one side and two wounds were performed through the folded skin by using an elliptical biopsy punch (Elliptical Excisional Instrument, Acuderm Inc.), resulting in four wounds on the back skin: two on the right of the vertebral column and two on the left (Figure 1). […]
Collagen content and organisation were assessed as published by De Visscher et al. (2007, 2008). […] From this the collagen content and organisation can be measured according to the following method.
The total area (At) of the region of interest (ROI) and the area of the red stained material within that area (Ar) on the bright-field image. On the polarized light image, the area of the red illuminated bundles (Ab) is measured. The collagen density and organized collagen are calculated by the following formulae: Collagen density: (Ar/At) × 100 [formula] […]
Both are expressed as a percentage: collagen density as a percentage of the total area and organized collagen as a percentage of the collagen area.

Consider `CCCCC[C@H](O)/C=C/C=C\C=C\C=C\[C@@H](O)[C@@H](O)CCCC(=O)O` [Lipoxin A4], for which the scar index in experiment [1] (1 µM Lipoxin A4 treatment, Figure 4) is given as 905 µm; in experiment [1] (100 µM Lipoxin A4 treatment, Figure 4), 511 µm; in experiment [1] (Pooled Lipoxin A4 treatment, Figure 3, p=0.008 vs vehicle (Vehicle 1478 ± 334)) it was 748 µm. Further, in experiment [1] (Figure 3, n=5, p<0.008), the “lower scarring than wounds treated with Control (quantitative scar index analysis)” value is given as 49%. For the same compound, the “Collagen content (in words, versus vehicle)” value in experiment [2] is recorded as “Lower collagen content was observed in wounds treated with vehicle”. In experiment [2], the “Collagen organisation (in words, versus vehicle)” value was “increased values”.
